Experimental data from US12077503B2, “Substituted cyclic amides and their use as herbicides” (FMC CORPORATION, priority 2015, dated 2024).

What was measured:
Type in all cases: in vivo
[1] = tested on: velvetleaf (Abutilon theophrasti); experiment: Test G Post-Emergence Protocol; conditions: Abutilon theophrasti, post-emergence, 312 h; for pest or weed control at 15.625 g/ha: 15.625 g ai/ha, evaluated after 13 days (100=total damage to plant; 0=no damage to plant), read-out: Velvetleaf damage rating; for pest or weed control at 62.5 g/ha: 62.5 g ai/ha, read-out: Velvetleaf damage rating (100=total damage to plant; 0=no damage to plant); for pest or weed control at 62.5 g/ha / pest or weed control at 250 g/ha: evaluated after 13 days; for pest or weed control at 250 g/ha: 250 g ai/ha, read-out: damage to plant, Velvetleaf (100=total damage to plant; 0=no damage to plant)
Method in brief: (§1)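 Seedlings grown 8 days in soil in a glasshouse (24/16 °C day/night, 14 h light, 65% humidity) were sprayed post-emergence with compound in acetone/water 50:50 plus 0.5% Tween 20 at 15.625, 62.5 or 250 g/ha. Damage was scored after 13 days on a 0–100 scale (100 = total damage).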

[2] = tested on: giant foxtail (Setaria faberi); experiment: Test G Post-Emergence Protocol; conditions: Setaria faberi, post-emergence, 312 h; for pest or weed control at 15.625 g/ha: 15.625 g ai/ha, evaluated after 13 days (100=total damage to plant; 0=no damage to plant), read-out: Foxtail, Giant damage rating; for pest or weed control at 62.5 g/ha: 62.5 g ai/ha, read-out: Foxtail, Giant damage rating (100=total damage to plant; 0=no damage to plant); for pest or weed control at 62.5 g/ha / pest or weed control at 250 g/ha: evaluated after 13 days; for pest or weed control at 250 g/ha: 250 g ai/ha, read-out: damage to plant, Foxtail, Giant (100=total damage to plant; 0=no damage to plant)
Method in brief: as §1

[3] = tested on: barnyardgrass (Echinochloa crus-galli); experiment: Test G Post-Emergence Protocol; conditions: Echinochloa crus-galli, post-emergence, 312 h; for pest or weed control at 15.625 g/ha: 15.625 g ai/ha, evaluated after 13 days (100=total damage to plant; 0=no damage to plant), read-out: Barnyardgrass damage rating; for pest or weed control at 62.5 g/ha: 62.5 g ai/ha, read-out: Barnyardgrass damage rating (100=total damage to plant; 0=no damage to plant); for pest or weed control at 62.5 g/ha / pest or weed control at 250 g/ha: evaluated after 13 days; for pest or weed control at 250 g/ha: 250 g ai/ha, read-out: damage to plant, Barnyardgrass (100=total damage to plant; 0=no damage to plant)
Method in brief: as §1

[4] = tested on: corn (Zea mays); experiment: Test G Post-Emergence Protocol; conditions: Zea mays, post-emergence, 312 h; for plant injury at 15.625 g/ha: 15.625 g ai/ha, evaluated after 13 days (100=total damage to plant; 0=no damage to plant), read-out: Corn damage rating; for plant injury at 62.5 g/ha: 62.5 g ai/ha, read-out: Corn damage rating (100=total damage to plant; 0=no damage to plant); for plant injury at 62.5 g/ha / plant injury at 250 g/ha: evaluated after 13 days; for plant injury at 250 g/ha: 250 g ai/ha, read-out: damage to plant, Corn (100=total damage to plant; 0=no damage to plant)
Method in brief: as §1

[5] = tested on: redroot pigweed (Amaranthus retroflexus); experiment: Test G Post-Emergence Protocol; conditions: Amaranthus retroflexus, post-emergence, 312 h; for pest or weed control at 15.625 g/ha: 15.625 g ai/ha, evaluated after 13 days (100=total damage to plant; 0=no damage to plant), read-out: Pigweed, Redroot damage rating; for pest or weed control at 62.5 g/ha: 62.5 g ai/ha, read-out: Pigweed, Redroot damage rating (100=total damage to plant; 0=no damage to plant); for pest or weed control at 62.5 g/ha / pest or weed control at 250 g/ha: evaluated after 13 days; for pest or weed control at 250 g/ha: 250 g ai/ha, read-out: damage to plant, Pigweed, Redroot (100=total damage to plant; 0=no damage to plant)
Method in brief: as §1

[6] = tested on: ivy-leaved morning glory (Ipomoea hederacea); experiment: Test G Post-Emergence Protocol; conditions: Ipomoea, post-emergence, 312 h; for pest or weed control at 15.625 g/ha: 15.625 g ai/ha, evaluated after 13 days (100=total damage to plant; 0=no damage to plant), read-out: Morningglory, Ivy-leaved damage rating; for pest or weed control at 62.5 g/ha: 62.5 g ai/ha, read-out: Morningglory, Ivy-leaved damage rating (100=total damage to plant; 0=no damage to plant); for pest or weed control at 62.5 g/ha / pest or weed control at 250 g/ha: evaluated after 13 days; for pest or weed control at 250 g/ha: 250 g ai/ha, read-out: damage to plant, Morningglory, Ivy-leaved (100=total damage to plant; 0=no damage to plant)
Method in brief: as §1

[7] = tested on: velvetleaf (Abutilon theophrasti); experiment: Test G Pre-Emergence Protocol; conditions: Abutilon theophrasti, pre-emergence, 312 h, evaluated after 13 days; for pest or weed control at 15.625 g/ha: 15.625 g ai/ha; for pest or weed control at 15.625 g/ha / pest or weed control at 250 g/ha: read-out: Velvetleaf damage rating (100=total damage to plant; 0=no damage to plant); for pest or weed control at 62.5 g/ha: 62.5 g ai/ha, 100=total damage to plant, 0=no damage to plant, read-out: plant damage rating, Velvetleaf; for pest or weed control at 250 g/ha: 250 g ai/ha
Method in brief: (§2)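 Seeds were sown in standard soil and kept one day in a glasshouse (24/16° C day/night, 14 h light, 65% humidity), then sprayed with compound in acetone/water (50:50) containing 0.5% Tween 20 at 15.625, 62.5 or 250 g/ha. Damage was scored after 13 days (0 = none, 100 = total).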

[8] = tested on: giant foxtail (Setaria faberi); experiment: Test G Pre-Emergence Protocol; conditions: Setaria faberi, pre-emergence, 312 h, evaluated after 13 days; for pest or weed control at 15.625 g/ha: 15.625 g ai/ha; for pest or weed control at 15.625 g/ha / pest or weed control at 250 g/ha: read-out: Foxtail, Giant damage rating (100=total damage to plant; 0=no damage to plant); for pest or weed control at 62.5 g/ha: 62.5 g ai/ha, 100=total damage to plant, 0=no damage to plant, read-out: plant damage rating, Foxtail, Giant; for pest or weed control at 250 g/ha: 250 g ai/ha
Method in brief: as §2

[9] = tested on: barnyardgrass (Echinochloa crus-galli); experiment: Test G Pre-Emergence Protocol; conditions: Echinochloa crus-galli, pre-emergence, 312 h, evaluated after 13 days; for pest or weed control at 15.625 g/ha: 15.625 g ai/ha, read-out: Barnyard grass damage rating (100=total damage to plant; 0=no damage to plant); for pest or weed control at 62.5 g/ha: 62.5 g ai/ha, 100=total damage to plant, 0=no damage to plant, read-out: plant damage rating, Barnyardgrass; for pest or weed control at 250 g/ha: 250 g ai/ha, read-out: Barnyardgrass damage rating (100=total damage to plant; 0=no damage to plant)
Method in brief: as §2

[10] = tested on: corn (Zea mays); experiment: Test G Pre-Emergence Protocol; conditions: Zea mays, pre-emergence, 312 h, evaluated after 13 days; for plant injury at 15.625 g/ha: 15.625 g ai/ha; for plant injury at 15.625 g/ha / plant injury at 250 g/ha: read-out: Corn damage rating (100=total damage to plant; 0=no damage to plant); for plant injury at 62.5 g/ha: 62.5 g ai/ha, 100=total damage to plant, 0=no damage to plant, read-out: plant damage rating, Corn; for plant injury at 250 g/ha: 250 g ai/ha
Method in brief: as §2

[11] = tested on: redroot pigweed (Amaranthus retroflexus); experiment: Test G Pre-Emergence Protocol; conditions: Amaranthus retroflexus, pre-emergence, 312 h, evaluated after 13 days; for pest or weed control at 15.625 g/ha: 15.625 g ai/ha; for pest or weed control at 15.625 g/ha / pest or weed control at 250 g/ha: read-out: Pigweed, Redroot damage rating (100=total damage to plant; 0=no damage to plant); for pest or weed control at 62.5 g/ha: 62.5 g ai/ha, 100=total damage to plant, 0=no damage to plant, read-out: plant damage rating, Pigweed, Redroot; for pest or weed control at 250 g/ha: 250 g ai/ha
Method in brief: as §2

[12] = tested on: ivy-leaved morning glory (Ipomoea hederacea); experiment: Test G Pre-Emergence Protocol; conditions: Ipomoea, pre-emergence, 312 h, evaluated after 13 days; for pest or weed control at 15.625 g/ha: 15.625 g ai/ha, read-out: Morning-glory, Ivy-leaved damage rating (100=total damage to plant; 0=no damage to plant); for pest or weed control at 62.5 g/ha: 62.5 g ai/ha, 100=total damage to plant, 0=no damage to plant, read-out: plant damage rating, Morningglory, Ivy-leaved; for pest or weed control at 250 g/ha: 250 g ai/ha, read-out: Morningglory, Ivy-leaved damage rating (100=total damage to plant; 0=no damage to plant)
Method in brief: as §2

| SMILES | pest or weed control at 15.625 g/ha [1] [%] | pest or weed control at 62.5 g/ha [1] [%] | pest or weed control at 250 g/ha [1] [%] | pest or weed control at 15.625 g/ha [2] [%] | pest or weed control at 62.5 g/ha [2] [%] | pest or weed control at 250 g/ha [2] [%] | pest or weed control at 15.625 g/ha [3] [%] | pest or weed control at 62.5 g/ha [3] [%] | pest or weed control at 250 g/ha [3] [%] | plant injury at 15.625 g/ha [4] [%] | plant injury at 62.5 g/ha [4] [%] | plant injury at 250 g/ha [4] [%] | pest or weed control at 15.625 g/ha [5] [%] | pest or weed control at 62.5 g/ha [5] [%] | pest or weed control at 250 g/ha [5] [%] | pest or weed control at 15.625 g/ha [6] [%] | pest or weed control at 62.5 g/ha [6] [%] | pest or weed control at 250 g/ha [6] [%] | pest or weed control at 15.625 g/ha [7] [%] | pest or weed control at 62.5 g/ha [7] [%] | further results |
| --- | --- | --- | --- | --- | --- | --- | --- | --- | --- | --- | --- | --- | --- | --- | --- | --- | --- | --- | --- | --- | --- |
| COC(=O)c1sccc1NC(=O)[C@@H]1C(=O)N(C)C[C@H]1c1ccc(C(F)(F)F)cc1 (racemic) [Compound 1621] | 0 | 0 | 0 | 10 | 40 | 40 | 10 | 30 | 30 | 0 | 0 | 0 | 0 | 20 | 10 | 0 | 0 | 0 | 0 | 0 | pest or weed control at 250 g/ha [7]: 0%; pest or weed control at 15.625 g/ha [8]: 0%; pest or weed control at 62.5 g/ha [8]: 0%; pest or weed control at 250 g/ha [8]: 0%; pest or weed control at 15.625 g/ha [9]: 0%; pest or weed control at 62.5 g/ha [9]: 0%; pest or weed control at 250 g/ha [9]: 0%; plant injury at 15.625 g/ha [10]: 0%; plant injury at 62.5 g/ha [10]: 0%; plant injury at 250 g/ha [10]: 0%; pest or weed control at 15.625 g/ha [11]: 0%; pest or weed control at 62.5 g/ha [11]: 0%; pest or weed control at 250 g/ha [11]: 0%; pest or weed control at 15.625 g/ha [12]: 0%; pest or weed control at 62.5 g/ha [12]: 0%; pest or weed control at 250 g/ha [12]: 0% |
| CN1C[C@@H](c2ccc(C(F)(F)F)cc2)[C@H](C(=O)Nc2ccc(F)c(Cl)c2F)C1=O (racemic) [Compound 1628] | 30 | 20 | 20 | 70 | 80 | 80 | 30 | 70 | 70 | 0 | 0 | 50 | 10 | 50 | 60 | 20 | 20 | 50 | 0 | 0 | pest or weed control at 250 g/ha [7]: 0%; pest or weed control at 15.625 g/ha [8]: 50%; pest or weed control at 62.5 g/ha [8]: 50%; pest or weed control at 250 g/ha [8]: 80%; pest or weed control at 15.625 g/ha [9]: 10%; pest or weed control at 62.5 g/ha [9]: 0%; pest or weed control at 250 g/ha [9]: 70%; plant injury at 15.625 g/ha [10]: 0%; plant injury at 62.5 g/ha [10]: 0%; plant injury at 250 g/ha [10]: 0%; pest or weed control at 15.625 g/ha [11]: 0%; pest or weed control at 62.5 g/ha [11]: 30%; pest or weed control at 250 g/ha [11]: 50%; pest or weed control at 15.625 g/ha [12]: 20%; pest or weed control at 62.5 g/ha [12]: 0%; pest or weed control at 250 g/ha [12]: 20% |
